Measurements as given in patent US10245238B2, “Composition for oral intake” (THERAVALUES CORPORATION, priority 2014, dated 2019).

Assay: Oral absorbability of various complexes: curcumin concentration in blood plasma after forced oral administration
Type: in vivo
Settings: SD rats, curcumin dose 10 mg/kg
Protocol: (Oral Absorbability of Various Complexes)
For the test animal, 6-week old SD rats (male, body weight: 170 g to 260 g, Charles River Laboratories Japan, Inc.) were used.
In regard to the administration method, the various complexes (Examples 1 to 13) produced as described above were each added to water for injection in a predetermined amount, subsequently the mixture was made up to 20 mL so as to obtain a curcumin concentration of 1 mg/mL, the mixture was mixed using an ultrasonic generator, and the mixture was forcibly orally administered to test animals (n 3 or 5) that had been fasted for 12 hours or longer before administration, using a feeding needle, such that the curcumin dose would be 10 mg/kg (Administration Test Examples 1 to 13) or 50 mg/kg (Administration Test Example 14).
Meanwhile, the cases of administering curcumin base powder (Comparative Test Example 1); physical mixture obtained by simply physically mixing curcumin base powder and hydroxypropylmethyl cellulose powder or hydroxypropyl cellulose powder (curcumin:HPMC=1:3 or curcumin HPC=1:3) (Comparative Test Examples 2 and 3); or CR-031P powder (manufactured by Theravalues Corp.), which is a turmeric dye composition obtained by combining micronized curcuminoid with gum ghatti (Comparative Test Examples 4 and 5) was designated as controls.
For the measurement of the concentration of curcumin and/or an analog thereof in blood plasma, measurement was made by the following method, using heparinized blood plasma obtained by collecting about 0.5 mL of blood from the jugular vein of the test animals without anesthesia, after 30 minutes, 1 hour, and 2 hours from the initiation of administration.
100 μL of 0.1 M acetate buffer solution (pH 5.0) and 10 μL of β-glucuronidase solution (about 68,000 units/mL) were added to 20 μL of the collected blood plasma, and the mixture was maintained for 1 hour at 37° C. Subsequently, 10 μL of 50% (v/v) methanol including 20 ng/mL of mepronil, which was an internal standard liquid, and 0.5 mL of chloroform were added thereto, the mixture was stirred for 1 minute using a vortex mixer, and then the mixture was mixed for 15 minutes using an ultrasonic generator. An extraction-treated liquid thus prepared was separated into chloroform layer and an aqueous layer by centrifugation (13,000×g, for 5 minutes, at room temperature). This extraction treatment was repeated two times. Subsequently, the chloroform layer was collected, and the solvent was distilled off from this layer using a vacuum centrifugal concentrator to solid-dry the chloroform layer. 100 μL of 50% (v/v) methanol was added thereto, and then the mixture was centrifuged (13,000×g, for 5 minutes, at room temperature) to collect the supernatant.
2 μL of the supernatant produced as described above was subjected to an analysis using LC-MS/MS (manufactured by Shimadzu Corp.), and thereby the curcumin concentration in the blood plasma was measured. The conditions for the LC-MS/MS analysis were set such that the LC column was ATLANTIS T3 (2.1×150 mm, 3 μm, manufactured by Waters Corp.), the column temperature was 40° C., the flow rate was 0.2 mL/min, and the mobile phase included A: 0.1% aqueous solution of formic acid, and B: 0.1% formic acid/acetonitrile, and gradient elution was performed under the following conditions. […]

## COc1cc(/C=C/C(=O)/C=C(O)/C=C/c2ccc(O)c(OC)c2)ccc1O [Curcumin base powder, curcumin]
0 to 2 h
  AUC: 33.9 ng/mL · 0-2 h
male, rat, plasma
  Cmax: 49.8 ng/mL
male, rat, plasma, 0.5 h after administration
  concentration at 0.5 h: 7.8 ng/mL
male, rat, plasma, 1 h after administration
  concentration at 1 h: 17.2 ng/mL
male, rat, plasma, 2 h after administration
  concentration at 2 h: 34.2 ng/mL
